Experimental data published in publication PMC8580996, “2-Oxoglutarate derivatives can selectively enhance or inhibit the activity of human oxygenases” (Nature Communications, 2021).
Where “and” joins values, the source holds several entries; their conditions need not be identical. Identical values can stand only once. Values belong to the compound of their own block, whether it stands above or below them.

Biological target: FIH (Homo sapiens, UniProt Q9NWT6)
Test: Mechanism of FIH inhibition: 2OG kinetics at variable concentrations of 18 (Ki, Cornish-Bowden plot)
Format: biochemical
Set-up: FIH reaction rate at variable 2OG and compound 18 concentrations (Figure 5a): unit not given here
Experimental: Supplementary Figure 28. Determination of the FIH Kapp for 4-(3-phenylprop-1-yl)-2OG (18) (continues on […]
the following page). […]
(LAA), and 20 μM ammonium iron(II) sulfate hexahydrate (FAS, (NH4)2Fe(SO4)2·6H2O) in buffer (50 mM Tris, 50 mM NaCl, pH 7.5, 20° C). Measurement times were normalized to the first sample injection analyzed after the […]
are shown as the mean of independent triplicates (n = 3; mean ± standard deviation, SD). […]
2OG concentrations, determined in the presence of 0.5 μM 18; (e) hydroxylation rates used for the kinetic analysis; […]

FIH, sequence (Q9NWT6 whole entry): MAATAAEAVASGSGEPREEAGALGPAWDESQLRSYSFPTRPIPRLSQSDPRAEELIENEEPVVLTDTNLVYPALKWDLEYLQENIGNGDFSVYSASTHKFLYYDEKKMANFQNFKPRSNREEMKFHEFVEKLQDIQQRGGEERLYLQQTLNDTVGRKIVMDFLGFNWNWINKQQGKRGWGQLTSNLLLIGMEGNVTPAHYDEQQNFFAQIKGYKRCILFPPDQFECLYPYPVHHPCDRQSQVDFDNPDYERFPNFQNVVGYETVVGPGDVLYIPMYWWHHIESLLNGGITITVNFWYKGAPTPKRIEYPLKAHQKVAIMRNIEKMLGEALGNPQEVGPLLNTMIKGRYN

- FIH Kmapp for 2OG (absence of 18, HIF-1α788-822): 0.74 ± 0.07 µM
- FIH vmaxapp for 2OG (absence of 18, HIF-1α788-822): 5.9 ± 0.1 10-3 μM·s-1
SMILES: O=C(O)CCC(=O)C(=O)O [2OG, 2-Oxoglutarate]

- 2OG concentration / rate, Cornish-Bowden plot (Figure 5b) (0.5 μM 18, 2 μM 2OG): 738.825 and 619.579 and 831.947
- 2OG concentration / rate, Cornish-Bowden plot (Figure 5b) (0.5 μM 18, 4 μM 2OG): 1161.44 and 956.709 and 1175.78
- 2OG concentration / rate, Cornish-Bowden plot (Figure 5b) (0.5 μM 18, 8 μM 2OG): 1892.15 and 1526.72 and 1620.09
- 2OG concentration / rate, Cornish-Bowden plot (Figure 5b) (0.5 μM 18, 16 μM 2OG): 2827.85 and 3158.93 and 3165.81
- 2OG concentration / rate, Cornish-Bowden plot (Figure 5b) (0.5 μM 18, 32 μM 2OG): 6761.04 and 5757.47 and 6079.03
- 2OG concentration / rate, Cornish-Bowden plot (Figure 5b) (0.5 μM 18, 64 μM 2OG): 11329.4 and 12181.2 and 11500.5
- FIH reaction rate at variable 2OG and compound 18 concentrations (Figure 5a) (0.5 μM compound 18, 0 μM 2OG): 0
- FIH reaction rate at variable 2OG and compound 18 concentrations (Figure 5a) (0.5 μM compound 18, 0.5 μM 2OG): 0.000919 and 0.000982 and 0.001057
- FIH reaction rate at variable 2OG and compound 18 concentrations (Figure 5a) (0.5 μM compound 18, 1 μM 2OG): 0.001502 and 0.002201 and 0.001615
- FIH reaction rate at variable 2OG and compound 18 concentrations (Figure 5a) (0.5 μM compound 18, 2 μM 2OG): 0.002707 and 0.003228 and 0.002404
- FIH reaction rate at variable 2OG and compound 18 concentrations (Figure 5a) (0.5 μM compound 18, 4 μM 2OG): 0.003444 and 0.004181 and 0.003402
- FIH reaction rate at variable 2OG and compound 18 concentrations (Figure 5a) (0.5 μM compound 18, 8 μM 2OG): 0.004228 and 0.00524 and 0.004938
- FIH reaction rate at variable 2OG and compound 18 concentrations (Figure 5a) (0.5 μM compound 18, 16 μM 2OG): 0.005658 and 0.005065 and 0.005054
- FIH reaction rate at variable 2OG and compound 18 concentrations (Figure 5a) (0.5 μM compound 18, 32 μM 2OG): 0.004733 and 0.005558 and 0.005264
- FIH reaction rate at variable 2OG and compound 18 concentrations (Figure 5a) (0.5 μM compound 18, 64 μM 2OG): 0.005649 and 0.005254 and 0.005565
- 2OG concentration / rate, Cornish-Bowden plot (Figure 5b) (1 μM 18, 2 μM 2OG): 1398.6 and 985.222 and 1090.51
- 2OG concentration / rate, Cornish-Bowden plot (Figure 5b) (1 μM 18, 4 μM 2OG): 1161.44 and 1382.65 and 1432.15
- 2OG concentration / rate, Cornish-Bowden plot (Figure 5b) (1 μM 18, 8 μM 2OG): 2089.32 and 1965.12 and 2137.89
- 2OG concentration / rate, Cornish-Bowden plot (Figure 5b) (1 μM 18, 16 μM 2OG): 3148.99 and 3185.35 and 3256
- 2OG concentration / rate, Cornish-Bowden plot (Figure 5b) (1 μM 18, 32 μM 2OG): 5969.04 and 5882.35
- 2OG concentration / rate, Cornish-Bowden plot (Figure 5b) (1 μM 18, 64 μM 2OG): 12176.6 and 10488.4
- FIH reaction rate at variable 2OG and compound 18 concentrations (Figure 5a) (1.0 μM compound 18, 0 μM 2OG): 0
- FIH reaction rate at variable 2OG and compound 18 concentrations (Figure 5a) (1.0 μM compound 18, 0.5 μM 2OG): 0.000462 and 0.000537 and 0.000636
- FIH reaction rate at variable 2OG and compound 18 concentrations (Figure 5a) (1.0 μM compound 18, 1 μM 2OG): 0.000809 and 0.001158 and 0.001225
- FIH reaction rate at variable 2OG and compound 18 concentrations (Figure 5a) (1.0 μM compound 18, 2 μM 2OG): 0.00143 and 0.00203 and 0.001834
- FIH reaction rate at variable 2OG and compound 18 concentrations (Figure 5a) (1.0 μM compound 18, 4 μM 2OG): 0.003444 and 0.002893 and 0.002793
- FIH reaction rate at variable 2OG and compound 18 concentrations (Figure 5a) (1.0 μM compound 18, 8 μM 2OG): 0.003829 and 0.004071 and 0.003742
- FIH reaction rate at variable 2OG and compound 18 concentrations (Figure 5a) (1.0 μM compound 18, 16 μM 2OG): 0.005081 and 0.005023 and 0.004914
- FIH reaction rate at variable 2OG and compound 18 concentrations (Figure 5a) (1.0 μM compound 18, 32 μM 2OG): 0.005361 and 0.00544
- FIH reaction rate at variable 2OG and compound 18 concentrations (Figure 5a) (1.0 μM compound 18, 64 μM 2OG): 0.005256 and 0.006102
- 2OG concentration / rate, Cornish-Bowden plot (Figure 5b) (2 μM 18, 2 μM 2OG): 2902.76 and 2272.73 and 1572.33
- 2OG concentration / rate, Cornish-Bowden plot (Figure 5b) (2 μM 18, 4 μM 2OG): 2503.13 and 2493.77 and 2115.28
- 2OG concentration / rate, Cornish-Bowden plot (Figure 5b) (2 μM 18, 8 μM 2OG): 3164.56 and 2950.94 and 2606.71
- 2OG concentration / rate, Cornish-Bowden plot (Figure 5b) (2 μM 18, 16 μM 2OG): 5053.7 and 4190.68 and 4087.89
- 2OG concentration / rate, Cornish-Bowden plot (Figure 5b) (2 μM 18, 32 μM 2OG): 7228.37 and 7157.24 and 7025.25
- 2OG concentration / rate, Cornish-Bowden plot (Figure 5b) (2 μM 18, 64 μM 2OG): 11617.4 and 13556.5
- FIH reaction rate at variable 2OG and compound 18 concentrations (Figure 5a) (2.0 μM compound 18, 0 μM 2OG): 0
- FIH reaction rate at variable 2OG and compound 18 concentrations (Figure 5a) (2.0 μM compound 18, 1 μM 2OG): 0.000474 and 0.000421 and 0.000679
- FIH reaction rate at variable 2OG and compound 18 concentrations (Figure 5a) (2.0 μM compound 18, 2 μM 2OG): 0.000689 and 0.00088 and 0.001272
- FIH reaction rate at variable 2OG and compound 18 concentrations (Figure 5a) (2.0 μM compound 18, 4 μM 2OG): 0.001598 and 0.001604 and 0.001891
- FIH reaction rate at variable 2OG and compound 18 concentrations (Figure 5a) (2.0 μM compound 18, 8 μM 2OG): 0.002528 and 0.002711 and 0.003069
- FIH reaction rate at variable 2OG and compound 18 concentrations (Figure 5a) (2.0 μM compound 18, 16 μM 2OG): 0.003166 and 0.003818 and 0.003914
- FIH reaction rate at variable 2OG and compound 18 concentrations (Figure 5a) (2.0 μM compound 18, 32 μM 2OG): 0.004427 and 0.004471 and 0.004555
- FIH reaction rate at variable 2OG and compound 18 concentrations (Figure 5a) (2.0 μM compound 18, 64 μM 2OG): 0.005509 and 0.004721
- 2OG concentration / rate, Cornish-Bowden plot (Figure 5b) (4 μM 18, 2 μM 2OG): 4319.65 and 4926.11 and 3120.12
- 2OG concentration / rate, Cornish-Bowden plot (Figure 5b) (4 μM 18, 4 μM 2OG): 4866.18 and 5181.35 and 3610.11
- 2OG concentration / rate, Cornish-Bowden plot (Figure 5b) (4 μM 18, 8 μM 2OG): 5025.13 and 6092.92
- 2OG concentration / rate, Cornish-Bowden plot (Figure 5b) (4 μM 18, 16 μM 2OG): 7045.35 and 7289.29 and 6153.85
- 2OG concentration / rate, Cornish-Bowden plot (Figure 5b) (4 μM 18, 32 μM 2OG): 9395.18 and 8886.42 and 8623.01
- 2OG concentration / rate, Cornish-Bowden plot (Figure 5b) (4 μM 18, 64 μM 2OG): 15241.7 and 14522.4 and 14719.4
- FIH reaction rate at variable 2OG and compound 18 concentrations (Figure 5a) (4.0 μM compound 18, 0 μM 2OG): 0
- FIH reaction rate at variable 2OG and compound 18 concentrations (Figure 5a) (4.0 μM compound 18, 2 μM 2OG): 0.000463 and 0.000406 and 0.000641
- FIH reaction rate at variable 2OG and compound 18 concentrations (Figure 5a) (4.0 μM compound 18, 4 μM 2OG): 0.000822 and 0.000772 and 0.001108
- FIH reaction rate at variable 2OG and compound 18 concentrations (Figure 5a) (4.0 μM compound 18, 8 μM 2OG): 0.001592 and 0.001313 and 0.00107
- FIH reaction rate at variable 2OG and compound 18 concentrations (Figure 5a) (4.0 μM compound 18, 16 μM 2OG): 0.002271 and 0.002195 and 0.0026
- FIH reaction rate at variable 2OG and compound 18 concentrations (Figure 5a) (4.0 μM compound 18, 32 μM 2OG): 0.003406 and 0.003601 and 0.003711
- FIH reaction rate at variable 2OG and compound 18 concentrations (Figure 5a) (4.0 μM compound 18, 64 μM 2OG): 0.004199 and 0.004407 and 0.004348
- Ki (non-linear regression, HIF-1α788–822, 2OG-competitive): ~200 nM
- FIH Kmapp for 2OG (presence of 0.5 μM 18): 2.12 ± 0.20 µM
- FIH vmaxapp for 2OG (presence of 0.5 μM 18): 5.8 ± 0.1 10-3 μM·s-1
- FIH Kmapp for 2OG (presence of 1.0 μM 18): 4.58 ± 0.34 µM
- FIH vmaxapp for 2OG (presence of 1.0 μM 18): 6.2 ± 0.1 10-3 μM·s-1
- FIH Kmapp for 2OG (presence of 2.0 μM 18): 9.62 ± 0.91 µM
- FIH vmaxapp for 2OG (presence of 2.0 μM 18): 5.9 ± 0.2 10-3 μM·s-1
- FIH Kmapp for 2OG (presence of 4.0 μM 18): 25.1 ± 2.5 µM
- FIH vmaxapp for 2OG (presence of 4.0 μM 18): 6.1 ± 0.3 10-3 μM·s-1
SMILES: O=C(O)C(=O)CC(CCCc1ccccc1)C(=O)O (centres unmarked) [compound 18, 4-(3-phenylpropyl)-2OG]
